# Data: US9005922B2, “Sensor chip for screening topoisomerase inhibitor and screening method thereof” (Taipei Medical University, priority 2010, dated 2015)
# How the values were obtained:
# [1] = molecular target: T1, hTopI-DNA cleavage complex (Homo sapiens, UniProt P11387); test: SPR assay on sensor chip with immobilized hTop I, inhibitor together with pUC19 plasmid DNA in analytes; format: binding
# T1 construct: made in house
# T1 sequence (P11387 1-765): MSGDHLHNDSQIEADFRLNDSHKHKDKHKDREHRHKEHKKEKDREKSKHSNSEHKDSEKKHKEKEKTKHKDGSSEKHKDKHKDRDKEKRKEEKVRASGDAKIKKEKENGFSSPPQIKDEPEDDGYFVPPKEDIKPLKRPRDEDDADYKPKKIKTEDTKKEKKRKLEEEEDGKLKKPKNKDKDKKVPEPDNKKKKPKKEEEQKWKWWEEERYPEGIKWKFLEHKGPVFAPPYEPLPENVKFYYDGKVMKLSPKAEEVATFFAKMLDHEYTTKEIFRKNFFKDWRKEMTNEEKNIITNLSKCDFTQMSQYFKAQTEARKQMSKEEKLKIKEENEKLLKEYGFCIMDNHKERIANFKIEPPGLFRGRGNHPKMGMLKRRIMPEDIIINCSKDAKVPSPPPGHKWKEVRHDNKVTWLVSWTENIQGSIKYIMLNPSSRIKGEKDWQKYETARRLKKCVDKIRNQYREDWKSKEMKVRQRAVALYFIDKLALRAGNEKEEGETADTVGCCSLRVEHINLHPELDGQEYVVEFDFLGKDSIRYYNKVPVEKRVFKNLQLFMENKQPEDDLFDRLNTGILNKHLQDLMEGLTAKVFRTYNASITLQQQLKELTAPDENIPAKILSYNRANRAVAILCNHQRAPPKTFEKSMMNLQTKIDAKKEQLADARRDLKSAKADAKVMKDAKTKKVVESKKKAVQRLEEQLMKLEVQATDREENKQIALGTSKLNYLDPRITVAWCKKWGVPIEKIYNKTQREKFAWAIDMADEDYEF
# Procedure: (§1) Briefly, the surface of the micro-fluid chip is activated with 0.05-0.5 M N-hydroxysuccinimide and 0.1-0.5 M N-ethyl-N′-(3-dimethylaminopropyl) carbodiimimide at a flow rate of 25 μL/min. The hTop I is diluted in 10 mM sodium acetate and adjusted pH values to pH 3.0-10.0, preferably to pH 5.0-8.5, especially to pH 7.5. The hTop I is immobilized on the micro-fluid chip at 20-40[…] (preferably at 25[…]) using a flow rate of 10-40 μL/min (preferably 25-30 μL/min, specially 25 μL/min) for 60-300 seconds (preferably 200-300 seconds), and therefore the contents of the hTop I are about 20-150 μL. Activated amine groups are quenched with injecting 1 M ethanolamine (pH 7.0-9.0). Recombinant hTop I was covalently coupled to the carboxymethylated dextran surface of the chip using standard amine-coupling chemistry.
# To characterize the drug-binding kinetics using the SPR sensor chip, plasmid DNA (1.0 μg/ml) is included in the analytes. […] The interaction causes an increase in the higher the mass of ligands immobilized on the micro-fluid chip, and is reflected in a rise in RUs.
# [2] = molecular target: T2, recombinant human topoisomerase I (hTop I) (Homo sapiens, UniProt P11387); test: Gel electrophoresis assay of pUC19 supercoiled DNA relaxation by hTop I; format: biochemical; settings: pUC19 plasmid DNA with hTop I, agarose gel, CPT 2-8 μM, FIG. 4 lanes 3-6
# T2 construct: made in house
# T2 sequence (P11387 1-765): T1 sequence (P11387 1-765)
# Source text: The pUC19 plasmid DNA is closely circular double-stranded supercoiled DNA. When the pUC19 plasmid DNA is interacted with the Top I, one strand of the circular double-stranded supercoiled DNA is cleaved, separated and religated to form a relaxed form. A gel electrophoresis assay is used to evaluate the conformational change of pUC19 plasmid DNA.
# [3] = molecular target: T3, immobilized hTop I (Homo sapiens, UniProt P11387); test: SPR assay on sensor chip with immobilized hTop I, inhibitor alone without DNA in analytes; format: binding; settings: CPT alone 0-250 nM, no DNA in analytes, FIG. 8
# T3 construct: made in house
# T3 sequence (P11387 1-765): T1 sequence (P11387 1-765)
# Procedure: as §1
# […] […] The interaction causes an increase in the higher the mass of ligands immobilized on the micro-fluid chip, and is reflected in a rise in RUs.
# [4] = pUC19 plasmid DNA 1.0 μg/ml plus CPT, compared to DNA only, ProteOn Manager 2.0 calculation
binding to hTop I immobilized on the micro-fluid chip ([1]; VP-16 and pUC19 plasmid DNA loaded simultaneously),Compound,"RU response (binding) ([1]; pUC19 plasmid DNA 1.0 μg/ml plus CPT 0, 62.5, 125 and 250 nM, FIG. 9)","Ka [1, 4]","Kd [1, 4]",inhibitory effect on hTop I relaxation activity (supercoiled DNA retained) [2],binding to hTop I (RU values) [3]
does not bind to the hTop I,"COc1cc([C@@H]2c3cc4c(cc3[C@@H](O[C@@H]3O[C@@H]5CO[C@@H](C)O[C@H]5[C@H](O)[C@H]3O)[C@H]3COC(=O)[C@H]23)OCO4)cc(OC)c1O [VP-16, etoposide]",–,–,–,–,–
–,"CC[C@@]1(O)C(=O)OCc2c1cc1n(c2=O)Cc2cc3ccccc3nc2-1 [CPT, camptothecin]",RU increases in a concentration-dependent manner,9.11×10^7,3.74×10^−21,inhibited hTop I relaxation activity,does not bind to hTopI without DNA
